# Experimental data taken from patent publication US12577226B2, “Compounds for treating Huntington's disease” (PTC THERAPEUTICS, INC., priority 2019, dated 2026).
# Tested on: Endogenous Huntingtin Protein (capture with MW1 (expanded polyglutamine) or MAB2166 antibody)
# Assay: Endogenous Huntingtin Protein Assay (ELISA-based Meso Scale Discovery electrochemiluminescence assay)
# Assay type: cell-based
# Settings: MSD electrochemiluminescence platform
# Procedure, shortened: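 MSD electrochemiluminescence sandwich immunoassay: plates coated with 1 μg/mL MW1 or MAB2166 capture antibody, samples incubated overnight at 4 °C. Detection with rabbit monoclonal #5656S then SULFO-TAG anti-rabbit (each 0.25 μg/mL, 1 h RT).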
row,Compound,IC50 [nM]
1,"Cn1cc2cc(-c3cnc(-c4ccc(O[C@H]5CC(C)(C)NC(C)(C)[C@H]5F)nn4)c(O)c3)cc(C#N)c2n1 (single isomer, unassigned) [Compound 34, 5-[6-(6-{[(3R,4S)-3-fluoro-2,2,6,6-tetramethylpiperidin-4-yl]oxy}pyridazin-3-yl)-5-hydroxypyridin-3-yl]-2-methyl-2H-indazole-7-carbonitrile or 5-[6-(6-{[(3S,4R)-3-fluoro-2,2,6,6-tetramethylpiperidin-4-yl]oxy}pyridazin-3-yl)-5-hydroxypyridin-3-yl]-2-methyl-2H-indazole-7-carbonitrile]",≤ 100
2,"2-(6-{[(3R,4S)-3-fluoro-2,2,6,6-tetramethylpiperidin-4-yl]oxy}pyridazin-3-yl)-5-(imidazo[1,2-b]pyridazin-6-yl)pyridin-3-ol and 2-(6-{[(3S,4R)-3-fluoro-2,2,6,6-tetramethylpiperidin-4-yl]oxy}pyridazin-3-yl)-5-(imidazo[1,2-b]pyridazin-6-yl)pyridin-3-ol [Compound 49]",≤ 100
3,"CC1(C)CC(Oc2ccc(-c3ncc(-n4ccnc4)cc3O)nn2)CC(C)(C)N1 [Compound 5, 5-(1H-imidazol-1-yl)-2-{6-[(2,2,6,6-tetramethylpiperidin-4-yl)oxy]pyridazin-3-yl}pyridin-3-ol]",≤ 100
4,"CC1(C)CC(Oc2ccc(-c3ncc(-n4nccn4)cc3O)nn2)CC2(CC2)N1 (stereo not drawn) [Compound 21, 2-{6-[(5,5-dimethyl-4-azaspiro[2.5]octan-7-yl)oxy]pyridazin-3-yl}-5-(2H-1,2,3-triazol-2-yl)pyridin-3-ol]",≤ 100

# More lines, now with the values ahead:
row,IC50 [nM],Compound
1,≤ 100,"2-(6-{[(3S,4S)-3-fluoro-2,2,6,6-tetramethylpiperidin-4-yl]amino}pyridazin-3-yl)-5-(1H-pyrazol-3-yl)pyridin-3-ol and 2-(6-{[(3R,4R)-3-fluoro-2,2,6,6-tetramethylpiperidin-4-yl]amino}pyridazin-3-yl)-5-(1H-pyrazol-3-yl)pyridin-3-ol [Compound 16]"
2,≤ 100,"CCC1CN(c2ccc(-c3ncc(-c4cn[nH]c4)cc3O)nn2)CCN1 (stereo not drawn) [Compound 119, 2-[6-(3-ethylpiperazin-1-yl)pyridazin-3-yl]-5-(1H-pyrazol-4-yl)pyridin-3-ol]"
3,≤ 100,"CC1(C)CC(Oc2ccc(-c3ncc(-c4cn[nH]c4)cc3O)nn2)CC(C)(C)N1 [Compound 1, 5-(1H-pyrazol-4-yl)-2-{6-[(2,2,6,6-tetramethylpiperidin-4-yl)oxy]pyridazin-3-yl}pyridin-3-ol]"
4,≤ 100,"[2H]C([2H])([2H])n1cc(-c2cnc(-c3cnc(N4CCC(NC(C)(C)C)C4)nn3)c(O)c2)cn1 (stereo not drawn) [Compound 137, 2-{3-[3-(tert-butylamino)pyrrolidin-1-yl]-1,2,4-triazin-6-yl}-5-[1-(^2H3)methyl-1H-pyrazol-4-yl]pyridin-3-ol]"
5,≤ 100,"CC1CN(c2ccc(-c3ncc(-c4cc(F)c5nn(C)cc5c4)cc3O)nn2)CCN1 (stereo not drawn) [Compound 97, 5-(7-fluoro-2-methyl-2H-indazol-5-yl)-2-[6-(3-methylpiperazin-1-yl)pyridazin-3-yl]pyridin-3-ol]"
